From ChEMBL document CHEMBL5096178, “Synthesis and Biological Evaluation of Natural-Product-Inspired, Aminoalkyl-Substituted 1-Benzopyrans as Novel Antiplasmodial Agents” (J Med Chem, 2021)

Assays:
[1] = Selectivity index, ratio of IC50 for rat L6 cells to IC50 for erythrocytic stage Plasmodium falciparum NF54; type: toxicity; conditions: read-out: Ratio IC50
[2] = Selectivity index, ratio of IC50 for rat L6 cells to IC50 for Trypanosoma brucei rhodesiense STIB 900 bloodstream trypomastigote; type: toxicity; conditions: read-out: Ratio IC50
[3] = Selectivity index, ratio of IC50 for rat L6 cells to IC50 for Trypanosoma cruzi Tulahuen C4 intracellular amastigote infected in rat L6 cells; type: toxicity, cell-based; conditions: read-out: Ratio IC50
[4] = tested on: Trypanosoma brucei rhodesiense; test: Antiprotozoal activity against Trypanosoma brucei rhodesiense STIB 900 bloodstream trypomastigote assessed as parasite growth inhibition incubated for 70 hrs by resazurin dye based assay; type: functional, organism-based; conditions: STIB 900, 70 h
Plasmodium falciparum [5] = test: Antiprotozoal activity against erythrocytic stage Plasmodium falciparum NF54 assessed as parasite growth inhibition incubated for 48 hrs by [3H]hypoxanthine incorporation assay; type: functional, organism-based
[6] = Cytotoxicity against rat L6 cells assessed as cell growth inhibition incubated for 70 hrs by Alamar Blue staining based […]; type: toxicity
Leishmania donovani [7] = test: Antiprotozoal activity against Leishmania donovani MHOM/ET/67/L82 axenic amastigote assessed as parasite growth inhibition incubated for resazurin dye based fluorometry; type: functional, organism-based
[8] = Selectivity index, ratio of IC50 for rat L6 cells to IC50 for Leishmania donovani MHOM/ET/67/L82 axenic amastigote; type: toxicity; conditions: read-out: Ratio IC50
Trypanosoma cruzi = test: Antiprotozoal activity against Trypanosoma cruzi Tulahuen C4 intracellular amastigote infected in rat L6 cells assessed as parasite growth inhibition incubated for 96 hrs in presence of CPRG/Nonidet by photometry; type: functional, organism-based; conditions: Tulahuen C4, L6, 96 h
Plasmodium falciparum [9] = test: Antiplasmodial activity against Plasmodium falciparum 3D7 assessed as parasite growth inhibition incubated for 24 hrs by FACS analysis; type: functional, organism-based
[10] = Displacement of [14C]lactate from Plasmodium falciparum FNT expressed in Saccharomyces cerevisiae incubated for 24 hrs by liquid scintillation counter method
Plasmodium falciparum [11] = test: Antiprotozoal activity against Chloroquine-resistant Plasmodium falciparum K1 assessed as parasite growth inhibition; type: functional, organism-based
Plasmodium falciparum [12] = test: Inhibition of Plasmodium falciparum DHODH assessed as residual activity using DCIP as substrate at 50 uM relative to control
Plasmodium falciparum [13] = test: Inhibition of Plasmodium falciparum DHODH using DCIP as substrate at 50 uM relative to control
Plasmodium falciparum [14] = test: Inhibition of Plasmodium falciparum DHODH using DCIP as substrate at 10 uM relative to control
Plasmodium falciparum [15] = test: Inhibition of Plasmodium falciparum DHODH assessed as residual activity using DCIP as substrate at 10 uM relative to control
Plasmodium falciparum [16] = test: Potency index, ratio of Chloroquine IC50 to test compound IC50 for Chloroquine-resistant Plasmodium falciparum K1 assessed as parasite growth inhibition; type: functional
[17] = Displacement of [3H]-(+)-pentazocine from Sigma1 receptor derived from pig brain assessed as inhibition constant measured after 120 mins by scintillation counter analysis; type: tissue-based, Sus scrofa
Leishmania donovani [18] = test: Antiprotozoal activity against Leishmania donovani MHOM-ET-67/L82 axenic amastigotes assessed as parasite growth inhibition incubated for 70 hrs by resazurin dye based inverted microscopy; conditions: MHOM-ET-67/L82, 70 h

IC50 [4] | IC50 (Trypanosoma cruzi) | Ki [17] | SMILES | selectivity ratio [1] | selectivity ratio [2] | selectivity ratio [3] | IC50 (Plasmodium falciparum [5]) | IC50 at 70 h [6] | IC50 (Leishmania donovani [7]) | selectivity ratio [8] | IC50 (Plasmodium falciparum [9]) | IC50 [10] | IC50 (Plasmodium falciparum [11]) | Activity (Plasmodium falciparum [12]) | inhibition (Plasmodium falciparum [13]) | inhibition (Plasmodium falciparum [14]) | Activity (Plasmodium falciparum [15]) | Ratio IC50 (Plasmodium falciparum [16]) | IC50 (Leishmania donovani [18])
0.7 µM | 9.1 µM |  | CC1(C)CCc2cc(CNCCc3ccccc3)c3c(c2O1)CCC(C)(C)O3 | 15 | 5 | 0.4 | 0.24 µM | 3.5 µM | 12 µM | 0.3 |  |  |  |  |  |  |  |  | 
5.3 µM | 28 µM |  | CC1(C)CCc2cc(C(O)CNCCCc3ccccc3)c(O)cc2O1 (stereo not drawn) | 1470 | 5 | 0.9 | 0.017 µM | 25 µM | 36 µM | 0.7 |  |  |  |  |  |  |  |  | 
3.4 µM | 18 µM |  | CC1(C)CCc2c(ccc(CNCCCCc3ccccc3)c2O)O1 | 83 | 4 | 0.8 | 0.18 µM | 15 µM | 42 µM | 0.4 |  |  |  |  |  |  |  |  | 
0.83 µM | 5.2 µM |  | CC1(C)CCc2cc(CNCCCc3ccccc3)c3c(c2O1)CCC(C)(C)O3 | 7 | 3 | 0.5 | 0.37 µM | 2.6 µM | 11 µM | 0.2 |  |  |  |  |  |  |  |  | 
 |  | 0.0024 µM | COCOc1cc2c(cc1CCCNCc1ccccc1)CCC(C)(C)O2 |  |  |  |  |  |  |  |  |  |  |  |  |  |  |  | 
1.09 µM | 17 µM |  | CC1(C)C=Cc2cc(CNCCCCc3ccccc3)c(O)cc2O1 | 241 | 17 | 1 | 0.079 µM | 19 µM | 25 µM | 0.8 |  |  |  |  |  |  |  |  | 
3.4 µM | 31 µM |  | CC1(C)CCc2c(ccc(CNCCCc3ccccc3)c2O)O1 | 180 | 8 | 0.9 | 0.15 µM | 27 µM | 52 µM | 0.5 |  |  |  |  |  |  |  |  | 
0.91 µM | 534 µM |  | CC1(C)C=Cc2cc(CNCc3ccccc3)c(O)cc2O1 | 356 | 63 | 0.1 | 0.16 µM | 57 µM | 65 µM | 0.9 |  |  |  |  |  |  |  |  | 
4.6 µM | 15 µM | 0.0048 µM | CC1(C)CCc2cc(CCCNCc3ccccc3)c(O)cc2O1 | 24 | 5 | 2 | 0.98 µM | 24 µM | 15 µM | 2 |  |  |  |  |  |  |  |  | 
1.4 µM | 9.5 µM |  | CC1(C)CCc2cc(CNCc3ccccc3)c3c(c2O1)CCC(C)(C)O3 | 12 | 4 | 0.6 | 0.47 µM | 5.6 µM | 13 µM | 0.4 |  |  |  |  |  |  |  |  | 
0.54 µM | 5.4 µM |  | CC1(C)CCc2cc(CNCCCCc3ccccc3)c3c(c2O1)CCC(C)(C)O3 | 15 | 6 | 0.6 | 0.21 µM | 3.2 µM | 4.9 µM | 0.7 |  |  |  |  |  |  |  |  | 
22 µM | 57 µM |  | CC1(C)CCc2c(ccc(CNCc3ccccc3)c2O)O1 | 1130 | 3 | 1 | 0.053 µM | 60 µM | 52 µM | 1 |  |  |  |  |  |  |  |  | 
0.46 µM | 13 µM |  | CC1(C)CCc2cc(CNCCCCc3ccccc3)c(O)cc2O1 | 214 | 33 | 1 | 0.07 µM | 15 µM | 138 µM | 0.1 |  |  |  |  |  |  |  |  | 

The remaining lines, values behind:

SMILES | IC50 [4] | IC50 (Trypanosoma cruzi) | Ki [17] | selectivity ratio [1] | selectivity ratio [2] | selectivity ratio [3] | IC50 (Plasmodium falciparum [5]) | IC50 at 70 h [6] | IC50 (Leishmania donovani [7]) | selectivity ratio [8] | IC50 (Plasmodium falciparum [9]) | IC50 [10] | IC50 (Plasmodium falciparum [11]) | Activity (Plasmodium falciparum [12]) | inhibition (Plasmodium falciparum [13]) | inhibition (Plasmodium falciparum [14]) | Activity (Plasmodium falciparum [15]) | Ratio IC50 (Plasmodium falciparum [16]) | IC50 (Leishmania donovani [18])
COc1ccc(C(=O)/C=C(\O)C(F)(F)C(F)(F)F)c(O)c1 |  |  |  |  |  |  |  |  |  |  | 0.14 µM | 0.17 µM |  |  |  |  |  |  | 
CC1(C)CCc2cc(CNCCc3ccccc3)c(O)cc2O1 |  |  |  | 531 |  |  | 0.081 µM | 43 µM |  |  |  |  |  |  |  |  |  |  | 
CC1(C)CCc2c(ccc(CNCCc3ccccc3)c2O)O1 | 6.5 µM | 53 µM |  | 3600 | 6 | 0.7 | 0.01 µM | 36 µM | 141 µM | 0.3 |  |  |  |  |  |  |  |  | 
CC1(C)C=Cc2cc(CNCCCc3ccccc3)c(O)cc2O1 | 1.01 µM | 28 µM |  | 346 | 28 | 1 | 0.081 µM | 28 µM | 43 µM | 0.7 |  |  |  |  |  |  |  |  | 
CC1(C)C=Cc2cc(CNCCc3ccccc3)c(O)cc2O1 | 0.67 µM | 28 µM |  | 605 | 69 | 2 | 0.076 µM | 46 µM | 105 µM | 0.4 |  |  |  |  |  |  |  |  | 
CC(NCCCc1ccccc1)c1cc2c(cc1O)OC(C)(C)C=C2 (racemic) |  |  |  |  |  |  |  |  |  |  |  |  | 0.886 µM | 98% | 4% | 3% | 116% | 13 | 
CC1(C)CCc2cc(C(O)CNCc3ccccc3)c(O)cc2O1 (stereo not drawn) | 6.4 µM | 48 µM |  | 460 | 7 | 1 | 0.1 µM | 46 µM | 54 µM | 0.9 |  |  |  |  |  |  |  |  | 
CC1(C)CCc2cc(CNCc3ccccc3)c(O)cc2O1 |  |  |  | 222 |  |  | 0.099 µM | 22 µM |  |  |  |  |  |  |  |  |  |  | 
CCCCCCCCCCCCCCCCOP(=O)([O-])OCC[N+](C)(C)C [MILTEFOSINE] |  |  |  |  |  |  |  |  |  |  |  |  |  |  |  |  |  |  | 0.471 µM
CC(NCc1ccccc1)c1cc2c(cc1O)OC(C)(C)C=C2 (racemic) |  |  |  |  |  |  |  |  |  |  |  |  | 0.026 µM |  |  |  |  | 26 | 
C[C@@H](NCc1ccccc1)c1cc2c(cc1O)OC(C)(C)C=C2 |  |  |  |  |  |  |  |  |  |  |  |  | 0.02 µM | 91% | 1% | 3% | 110% |  | 
C[C@H](NCc1ccccc1)c1cc2c(cc1O)OC(C)(C)C=C2 |  |  |  |  |  |  |  |  |  |  |  |  | 0.01 µM | 96% | 1% | 5% | 116% |  | 
